The test addresses T1, COX-1 (Homo sapiens, UniProt P23219).
T1 construct: gene PTGS1; pure human recombinant enzyme (h-COX-1)
Put plainly: colorimetric TMPD oxidation assay with purified human COX-1, arachidonic acid substrate. The class given is biochemical.

T1 sequence (P23219 24-599): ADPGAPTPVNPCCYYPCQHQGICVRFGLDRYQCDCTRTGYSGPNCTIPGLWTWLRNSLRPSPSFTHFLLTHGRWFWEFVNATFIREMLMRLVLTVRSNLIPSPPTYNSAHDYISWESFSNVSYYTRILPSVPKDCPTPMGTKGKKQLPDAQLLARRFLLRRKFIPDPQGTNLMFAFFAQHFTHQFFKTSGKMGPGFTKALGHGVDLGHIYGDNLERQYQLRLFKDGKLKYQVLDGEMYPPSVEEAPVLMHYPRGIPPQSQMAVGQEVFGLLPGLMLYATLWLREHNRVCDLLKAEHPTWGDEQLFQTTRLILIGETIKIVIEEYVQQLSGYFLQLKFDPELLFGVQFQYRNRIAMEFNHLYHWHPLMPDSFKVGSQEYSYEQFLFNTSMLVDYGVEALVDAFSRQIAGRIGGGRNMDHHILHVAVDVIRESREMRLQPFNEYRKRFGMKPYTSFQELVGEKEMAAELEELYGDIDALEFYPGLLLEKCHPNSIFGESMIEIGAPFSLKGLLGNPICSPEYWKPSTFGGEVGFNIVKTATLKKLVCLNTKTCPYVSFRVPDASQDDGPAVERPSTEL

The compound `O=c1ccc2cc(O[C@@H]3O[C@H](CO)[C@@H](O)[C@H](O)[C@H]3O)c(O)cc2o1` [a, 7-hydroxy-6-[(2 S, 3 R, 4 S, 5 S, 6 R)-3,4,5-trihydroxy-6-(hydroxymethyl)oxane-2-yl] oxychromen-2-one] displayed an IC50 of 4.49 mM. That is a millimolar value.

The record behind these values is paper PMC8161015, “Antiplatelet Activity of Coumarins: In Vitro Assays on COX-1” (Molecules, 2021).
